Series [1] concerns the target T1, CatK (Homo sapiens, UniProt P43235).
T1 construct: made in house; host or cells: Pichia pastoris
T1 sequence (P43235 115-329): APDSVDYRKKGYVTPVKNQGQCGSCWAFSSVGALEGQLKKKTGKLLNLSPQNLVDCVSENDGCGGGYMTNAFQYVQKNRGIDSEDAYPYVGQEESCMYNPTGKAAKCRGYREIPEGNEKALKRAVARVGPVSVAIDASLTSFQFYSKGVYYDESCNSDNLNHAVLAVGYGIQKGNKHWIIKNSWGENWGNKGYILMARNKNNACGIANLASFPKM
In words: Z-Phe-Arg-MCA cleavage assay with CatK. The conditions noted are these: 100 μM inhibitor, 5 nM CatK, 5 μM substrate, pH 5.5. The class given is biochemical. How it is done: (§1) The enzymatic activity of CatK was monitored by measuring the rate of release of the fluorogenic group, amino-methyl coumarin at an excitation wavelength of 380 nm and an emission wavelength of 450 nm using a Molecular Devices SpectraMax Gemini spectrofluorometer. Inhibitors were added prior to measurement of enzyme activity. The assays were performed at 25°C at a fixed enzyme concentrations (5 nM) and substrate concentration (5 μM) in 100 mM sodium acetate buffer, pH 5.5, containing 2.5 mM DTT and 2.5 mM EDTA. Z-Phe-Arg-MCA hydrolysis with trypsin was carried out in 50 mM Tris-HCl, pH 8.8 at 10 nM enzyme concentration.

A further series concerns Yeast. More on the design: method as in earlier work. The settings on record: cited from earlier work.
Series [2] deals with human osteoclasts. In words: Osteoclast survival: CellTiter-Blue metabolic activity and osteoclast count after TRAcP staining. The series is classed as cell-based. How it is done: (§2) Osteoclasts were generated from mononuclear cells isolated from human bone marrow tissue (Lonza, Walkersville, MD). The bone marrow cells were centrifuged at 400 g for 5 min and the pellet was re-suspended in 10 mL α-MEM (α-Minimal Essential Media) and layered on 10 ml Ficoll-Plaque media solution. After centrifugation at 500 g for 30 min, the white interface containing the monocytes was harvested and washed twice with α-MEM. Cells were cultured in α-MEM containing 10% FBS and 25 ng/mL M-CSF for 24 hours and then cultured in 25 ng/mL RANKL and 25 ng/mL M-CSF for 7 days. Differentiated osteoclasts (100,000 cells per slice) were then seeded on each bone slice (5.5 mm diameter and 0.4 mm thickness; self-made) in the presence or absence of inhibitors and incubated for 72 hours at 5% CO2 and 37°C with the DMSO concentration at 0.1%. The inhibitor concentration range tested varied between 50 nM to 3 μM.
(§3) To compare the effects of the compounds on cell survival, the metabolic activity of osteoclasts was determined using the CellTiter-Blue Viability Assay (Promega, Madison, WI, USA). Bone slices from each condition (inhibitor-treated and control groups) were fixed in 4% formaldehyde and subsequently stained for tartrate-resistant acid phosphatase (TRAcP) activity (Acid Phosphatase, Leukocyte (TRAP) Kit; Sigma-Aldrich). Aliquots from cell culture media were used to determine the CTx-I concentration (MyBiosource ELISA kit, San Diego, CA). CTx-I is a CatK-specific C-terminal cleavage product of triple helical type I collagen. The total number of osteoclasts per bone slice was determined after TRAcP staining. Cells with ≥2 nuclei were counted as osteoclasts. After 72 h, bone slices from each condition were incubated in filtered water for cell lysis and cells were removed using a cotton stick. Subsequently the resorption cavities were stained with toluidine blue and observed by light microscopy. The number of resorption events and eroded bone surface area were determined as previously described. All light microscopic analyses were performed using a Nikon Eclipse LV100 microscope and a Nikon Eclipse Ci microscope.

Series [3] has as its system human osteoclasts. The experiment in a line: Human osteoclast bone resorption assay on bone slices. The series is classed as cell-based. The settings on record: for IC50: human osteoclasts on bone slices, read-out: IC50 for inhibition of trench eroded surface per bone surface (bone resorption). How it is done: as §2, §3
Series [4] addresses T2, MMP-1 (Homo sapiens, UniProt P03956).
T2 sequence (P03956 100-469): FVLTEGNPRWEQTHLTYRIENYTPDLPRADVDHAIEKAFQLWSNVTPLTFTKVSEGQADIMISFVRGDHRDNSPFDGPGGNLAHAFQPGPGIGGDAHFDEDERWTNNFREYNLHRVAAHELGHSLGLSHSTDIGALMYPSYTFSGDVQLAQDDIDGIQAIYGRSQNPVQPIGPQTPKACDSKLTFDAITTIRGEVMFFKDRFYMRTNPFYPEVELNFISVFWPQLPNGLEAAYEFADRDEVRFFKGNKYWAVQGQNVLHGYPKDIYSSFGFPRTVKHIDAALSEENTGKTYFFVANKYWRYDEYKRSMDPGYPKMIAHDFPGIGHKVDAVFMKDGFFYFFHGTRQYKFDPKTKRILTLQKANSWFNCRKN
In words: Collagen digestion with MMP-1. The settings on record: 50 μM inhibitor, 400 nM MMP-1. The class given is biochemical. How it is done: (§4) Digestion with MMP-1 was performed in 50 mM Tris-HCl, pH 7.4, containing 200 mM NaCl and 5 mM CaCl2 at 28°C for 4 h. Reactions were stopped by adding 25 mM EDTA as previously described. Samples were analyzed using 10% SDS-PAGE gels and stained with Coomassie. The resulting bands of α-collagen chains were quantitatively assessed using ImageJ (Version 1.5) and IC50 graphs were plotted using GraphPad Prism (GraphPad Software, Version 5.0, La Jolla California USA).

For series [5], the target named is T1, CatK. The experiment in a line: CatK collagenase assay (type I collagen degradation, SDS-PAGE). The series is classed as biochemical. How it is done:
The collagenase inhibitory activities of all identified compounds were measured using a collagen degradation assay. Soluble bovine type I collagen (0.6 mg/mL) was incubated with 400 nM recombinant human CatK, in the presence or absence of 200 nM chondroitin 4-sulfate (C4-S) in 100 mM sodium acetate buffer, pH 5.5, containing 2.5 mM dithiothreitol (DTT) (Sigma-Aldrich Canada, Oakville, Ontario, Canada) and 2.5 mM ethylenediametetraacetate (EDTA) (Sigma-Aldrich). In the experiments involving detergent to minimize inhibitor aggregation, 0.001% or 0.005% Triton X-100 was added to the buffer with the inhibitor. The recombinant human CatK was expressed in Pichia pastoris and purified as previously described. Selected compounds identified by molecular docking were ordered from the National Cancer Institute through the Developmental Therapeutics Program (Rockville, MD). All compounds were dissolved in DMSO as a 20 or […] stock. […] After incubation at 28°C for 4 hours, 1 μM of E-64 was added to block the residual activity of CatK.
as §4

Series [6] has as its target T2, MMP-1. In words: Gelatin degradation assay with MMP-1. The series is classed as biochemical. The conditions noted are these: 50 μM inhibitor, 10 nM MMP-1. How it is done:
Gelatin (0.6 mg/mL) degradation assays were performed in the same manner as the collagen degradation experiments with 10 nM enzyme and were incubated at 37°C for one hour at the appropriate pH values for the individual proteases (CatK, pH 5.5; MMP-1, pH 7.4; trypsin, pH 8.8).

The next series concerns trypsin. In words: Z-Phe-Arg-MCA hydrolysis with trypsin. The class given is biochemical. The conditions noted are these: 50 μM (5,000-times molar excess). How it is done: as §1, with “Evaluation of a potential active site inhibition of the compounds was performed using the fluorogenic Benzyloxycarbonyl-Phe-Arg-7-amido-4-methylcoumarin (Z-Phe-Arg-MCA) substrate (Bachem Americas, Inc, Torrance, California, USA) as previously described. The enzymatic” for “The enzymatic”

The subject of series [7] is human osteoclasts. The conditions noted are these: cited from earlier work.
In another series the test system is ovariectomiced mice. More on the design: method as in PMID 28745432. The settings on record: cited from earlier work.
Where [8] appears, read: 1 μM inhibitor, 72 h, versus untreated.
The mark [9] stands for this setting: 400 nM CatK, soluble bovine type I collagen 0.6 mg/mL, pH 5.5, 28°C, 4 h, read-out: Collagenase IC50.

As usually defined, the inhibition is how much of the control response was suppressed. As usually defined, the IC50 is the midpoint of a concentration-inhibition curve.

Values joined by “and” are separate entries in the source; they are usually repeats but may differ in a detail not shown here. Identical values can stand only once. “Also recorded” adds a separate entry of the source. Counter-ions that a name gives are not always drawn. Like-named read-outs stand apart in the source and are kept apart here.

For `CCc1cc2nc3c(=O)[nH]c(=O)nc-3n(CCN(CCO)CCO)c2cc1CC` [compound 1, 10-[2-[bis(2-hydroxyethyl)amino]ethyl]-7,8-diethylbenzo[γ]pteridine-2,4-dione], the inhibition at 100 µM at CatK [1] was 9.5 ± 2.6%. For the same molecule, in the series on Yeast, the “activity in NCI Yeast Anticancer Drug Screen” value is listed as “active”. Besides, the “Metabolic activity of osteoclasts” value in the series on human osteoclasts [2] (CellTiter-Blue, compared with untreated cells) was “no significant differences”. Besides, the number of osteoclasts result with human osteoclasts [2] (TRAcP staining, compared with untreated cells) was “no significant differences”. Besides, in the series with human osteoclasts [2] (osteoclast bone resorption assays), the cell toxicity result is given as “no cell toxicity effects”. In the series with human osteoclasts [3] (setting [8]), the Number of trenches entry is given as “significant reduction”. Moreover, the “percentage of eroded surface area / total eroded surface” value with human osteoclasts [3] (setting [8]) is “very effective in reducing the total eroded surface; also recorded: significant reduction”. The IC50 in the series with human osteoclasts [3] (Homo sapiens, Osteoclast, 72 h, 72 h) is ~0.3 µM; with human osteoclasts [3] (72 h), 0.312 ± 0.063 µM; at CatK [5] (setting [9]) it was < 20 µM and 4.7 µM and ~5 µM; at CatK [5] (Collagenase IC50 with 0.005% Triton X-100, in the presence of detergent, 0.005% Triton X-100), 5.1 ± 1 µM. Also, in the series with human osteoclasts [3] (osteoclast resorption assay, versus odanacatib), the “overall potency, times lower than odanacatib” value was 15–20 times. Besides, on MMP-1 [4], the “inhibitory activity towards the collagenase activity of MMP-1” value is on record as “no inhibitory activity; also recorded: did not show inhibition”. Further, at CatK [5] (in the presence of detergent, 0.005% Triton X-100), the “Collagenase IC50 with 0.005% Triton X-100” value is “not significantly different”. Besides, the “inhibitory activity for the gelatinase activity of MMP-1” value at MMP-1 [6] is “no inhibitory activity; also recorded: did not show inhibition”.
As to `CN(C)CCNc1ccc2ncn3c4ccc(O)cc4c(=O)c1c23` [compound 2, 2-((8-hydroxy-6-oxo-6H-imidazo[4,5,1-de]acridin-5-yl)amino)-N,N-dimethylethanaminium], testing at 100 µM against CatK [1] gave an inhibition of 6.1 ± 3.9%. At CatK [5] (setting [9]), the half-inhibitory concentration (IC50) is < 20 µM and 7.6 µM.
The molecule `CCc1nc2ccc(NCCN(C)C)c3c(=O)c4ccccc4n1c23` [compound 4, 5-(2-(dimethylamino)ethylamino)-1-ethyl-6H-imidazo[4,5,1-de]acridin-6-one] showed an inhibition at 100 µM against CatK [1] of 2.3 ± 0.9%. In addition, at CatK [5] (setting [9]), the 50% inhibitory concentration (IC50) was < 20 µM and 9.9 µM.
In turn, `CCN(CC)CCNc1ccc2ncn3c4ccccc4c(=O)c1c23` [compound 5, 5-{[2-(diethylamino)ethyl]amino}-6H-imidazo[4,5,1-de]acridin-6-one hydrochloride (1:1)] returned an inhibition at 100 µM against CatK [1] of 3.7 ± 0.7%. In addition, the concentration for half-maximal inhibition (IC50) on CatK [5] (setting [9]) was < 20 µM and 13 µM.
The molecule `Cc1c2c(c(O)c3c(O)cccc13)C(=O)C1(O)C(=O)C(C(N)=O)C(O)C(N(C)C)C1C2` (stereo not shown) [compound 6, 4-(dimethylamino)-3,10,11,12a-tetrahydroxy-6-methyl-1,12-dioxo-3,4,4a,5-tetrahydro-2H-tetracene-2-carboxamide] displayed an inhibition at 100 µM at CatK [1] of 11.5 ± 2.6%. Further, the “inhibition of Z-Phe-Arg-MCA degradation by trypsin” value in the series with trypsin is recorded as 60%. Also, the IC50 at CatK [5] (setting [9]) was ~35 µM and 34.8 µM.
As to `O=C(Nc1cccc(C(=O)Nc2cccc(C3=NCCN3)c2)c1)Nc1cccc(C(=O)Nc2cccc(C3=NCCN3)c2)c1` [compound 8, N-[3-(4,5-dihydro-1H-imidazol-2-yl)phenyl]-3-[[3-[[3-(4,5-dihydro-1H-imidazol-2-yl)phenyl]carbamoyl]phenyl]carbamoylamino]benzamide hydrochloride], the inhibition at 100 µM against CatK [1] turned out to be 7.2 ± 3.6%. The IC50 on CatK [5] (setting [9]) was 12.8 µM and < 20 µM.
On CatK [1], `CCN(CC)CC1=C/C(=N/NC2=C3C=CC(=O)C(NNc4ccc(O)c(CN(CC)CC)c4)=C3C=CC2=O)C=CC1=O.Cl` [compound 9, 1-[2-[3-(diethylaminomethyl)-4-hydroxyphenyl]hydrazinyl]-5-[(2E)-2-[3-(diethylaminomethyl)-4-oxocyclohexa-2,5-dien-1-ylidene]hydrazinyl]naphthalene-2,6-dione hydrochloride] returned an inhibition at 100 µM of 3.2 ± 0.8%. For the same molecule, the “activity in NCI Yeast Anticancer Drug Screen” value in the series on Yeast is “active”. Besides, on CatK [5] (setting [9]), the half-inhibitory concentration (IC50) was < 20 µM.
With `CC1CN=C(c2cccc(NC(=O)c3ccc(C(=O)Nc4cccc(C5=NCC(C)N5)c4)c(N)c3)c2)N1` (stereo not shown) [compound 80116], the IC50 on CatK [5] (setting [9]) was found to be 89 µM.
As to `CSCCC(NCC(N)Cc1ccc2ccccc2c1)C(=O)NCc1cccc(C(=O)NC(CNC(CC(C)C)C(=O)O)Cc2ccccc2)c1` (stereo not shown) [compound 719315], at CatK [5] (setting [9]), the 50% inhibitory concentration (IC50) was 88 µM.
`CC(C)(F)C[C@H](N[C@@H](c1ccc(-c2ccc(S(C)(=O)=O)cc2)cc1)C(F)(F)F)C(=O)NC1(C#N)CC1` [odanacatib]: the IC50 in the series with human osteoclasts [7] (read-out: IC50 for human-osteoclast-mediated bone resorption) was 0.0146 µM.
On to `Cc1c(S(=O)(=O)O)oc2c1C(=O)C(=O)c1c-2ccc2c1CCCC2(C)C` [tanshinone IIA sulfonate], for which the “efficacy in ovariectomiced mice” value in the series on ovariectomiced mice is “showed efficacy”. In the series with human osteoclasts [7] (read-out: IC50 in osteoclast resorption assay), the IC50 is 0.24 µM.
